Measured values: patent publication US20240132484A1, “BROAD SPECTRUM ANTIVIRAL COMPOUNDS TARGETING THE SKI COMPLEX” (priority 2020, published 2024)
“Also recorded” adds a separate entry of the source.

How the values were obtained:
IAV RNA = assay: Multi-segment RT-PCR (M-RTPCR) of IAV segments in A549 cells; assay type: cell-based, influenza A virus
[1] = system: SARS-CoV-2 mRNA (N, RdRp); assay type: cell-based; conditions: two gene targets (N, RdRp)
IAV NS1 mRNA = assay type: cell-based, influenza A virus
IAV NS1 protein = assay type: cell-based, influenza A virus
SARS-CoV = assay type: cell-based; conditions: 24 h
Influenza virus = assay: organism not typed; assay type: cell-based, influenza A virus; conditions: for Flu titer (pfu/ml): plaque assay
SARS-CoV-2 = assay type: cell-based
MERS-CoV = assay: microbe, parasite or virus in culture; assay type: cell-based; conditions: Middle East respiratory syndrome-related coronavirus, Huh-7, 24 h, read-out: IC50 against MERS-CoV

SMILES | IAV RNA amplified by M-RTPCR (IAV RNA) | SARS-CoV-2 mRNA production [1] | IAV NS1 mRNA (IAV NS1 mRNA) | NS1 protein by western blot (IAV NS1 protein) | inhibition of SARS-CoV (SARS-CoV; 10 μM) | reduction in virus production (SARS-CoV; 50 μM) [log] | time of addition: inhibition of IAV when drug added 2 h after infection (Influenza virus; +2 h versus -2 h and 0 h) | IC50 (Influenza virus; A549, 24 h, read-out: IC50 against IAV) [µM] | antiviral activity against IAV infection (Influenza virus; screening, A549 cells) | inhibition of SARS-CoV-2 virus production by TCID50 (SARS-CoV-2) | IC50 (MERS-CoV) [µM] | Flu titer (pfu/ml) (Influenza virus; 1 μM compound, A549 cells) | Flu titer (pfu/ml) (Influenza virus; 10 μM compound, A549 cells) | Flu titer (pfu/ml) (Influenza virus; 50 μM compound, A549 cells)
COc1ccc(CNCCc2ccccc2C)c(OCC(O)CN2CCN(C)CC2)c1 (centres unmarked) [UMB18-2] | total loss of IAV RNA | capable of inhibiting SARS-CoV-2 mRNA production | marked reduction in mRNA | lack of NS1 protein | inhibition, but to a lesser extent | 1 | marked reduction in the level of inhibition | ~5 | capable of inhibiting IAV infection | capable of inhibiting virus production; also recorded: less so | ~5 | – | – | –
COc1ccccc1Cn1cc(C(=O)NCCC2=CCCCC2)c(=O)c(C(=O)N(CCO)C(C)C)c1 [Compound 55345532, N′-[2-(1-cyclohexen-1-yl)ethyl]-N-(2-hydroxyethyl)-N-isopropyl-1-(2-methoxybenzyl)-4-oxo-1,4-dihydro-3,5-pyridinedicarboxamide] | – | – | – | – | – | – | – | – | – | – | – | 55000 | 70000 | 34000
O=C(CCCc1ccccc1)Nc1cccc(N2CCC(NCCCn3nnc4ccccc43)CC2)c1 [Compound 84256405, N-[3-(4-{[3-(1H-1,2,3-benzotriazol-1-yl)propyl]amino}-1-piperidinyl)phenyl]-4-phenylbutanamide] | – | – | – | – | – | – | – | – | – | – | – | 50000 | 140000 | 210000
